Data on 18 molecules can be found in US10745731B2, “Recombinant production method” (Hoffmann-La Roche Inc., priority 2015, dated 2020).

Like-named read-outs stand apart in the source and are kept apart here.

The test system of series [1] is HEK293F cells. Kind of series: Transient gene expression in HEK293F cells: cell specific productivity of the expressed antibody. The series is classed as cell-based, human. Conditions: for specific productivity after 96 hours: none 2.01; for activity at 0.015 µM: 15 nM; for Mean cell specific productivity: untreated 1.71; for TGE enhancement after BAY11-7082 treatment compared to the corresponding single treatment: BAY11-7082 added 24 hours after stimulation. The protocol: HEK293F cells were cultivated in F17 medium (Life Technologies) in shaker flasks at 36.5° C., 7.0% CO2 and 80% humidity in a shaker incubator (Kuhner, Mytron). Cells were split every three to four days and were cultivated no longer than five weeks. To avoid overgrowth and to keep them in the exponential phase of growth, viable cell densities (VCD) never exceeded 60*10^5 cells/mL.
(§1) Transient gene expression is a 5-7 days lasting procedure. The standard operating procedure of this expression system is applicable to shaker flasks with various volumes of cell culture ranging from 80 mL to 2 L. First, half of the cell culture volume is seeded at a viable cell density (VCD) of 8*10^5 cells/mL. After two days of cultivation, cells are split to a VCD of about 12*10^5 cells/mL. On the next day, cells are transfected with a polyethylene imine (PEI)-based transfection reagent at a VCD between 20*10^5 cells/mL and 25*10^5 cells/mL. 3 hours after transfection, the production enhancer (if any) is added. 24 h after transfection, a feeding solution and a glucose bolus is supplemented to avoid the limitation of nutrients. Depending on cell viability, which should not decrease below 50%, the supernatant is harvested five to seven days post transfection and subjected to antibody purification.
(§2) To compare transient gene expression rates always the same plasmids encoding for one distinct antibody were co-transfected.
(§3) To co-transfect two plasmids equimolarily, the ratio of the base pair number of one plasmid to the total base pair number was calculated and multiplied with the total amount of DNA (0.5 mg/L). Plasmid one has a size of 10530 bp and plasmid two has a size of 7184 bp and were solved in water to a final concentration of 1 mg/mL. For transfection of one liter cell culture, 297 μL of plasmid one and 203 μl of plasmid two were dissolved in 40 mL phosphate buffered saline (PBS) at room temperature. 1.25 mL JetPEI® solution was added and the solution was mixed well. After incubation for 10-15 min., the mixture was added to the cells. The cells were transfected in a batch containing the whole cell culture necessary for every experiment to avoid variance arising from different transfection efficiencies.
(§4) 80 mL of the transfected cell culture batch was added to a 125 ml shaker flask. For every experiment, two or three 125 mL shaker flasks were used as biological replicates and treated the same way. Three hours after transfection, cells were split into 125 mL shaker flasks and the cellular treatments with small molecules or ligands were started. Basal protein expression was determined by untreated control samples. To compare samples with the standard operating procedure, cells were also treated with VPA to a final concentration of 4 mM or 3 mM. VPA and its analogues were dissolved in double distilled water. […] Tumor necrosis factor (TNF) alpha was reconstituted with PBS supplemented with 0.1% BSA. Flagellin was dissolved in sterile double distilled water. The applied molecules were not added to the cultivation directly, but diluted in 16 mL medium pre-warmed to 36.5° C. and added to the cultivation thereafter.
(§5) 24 h after transfection a feeding solution at 36.5° C. and 3 mg/mL glucose were added to the cultivation.
(§6) To determine cell viability and viable cell density (VCD) 1 mL cultivation medium (cell suspension) was transferred into a Cedex low fouling sample cup. The cup was placed into a Vicell instrument (Beckman Coulter). The instrument mixes cells with trypan blue to stain dead cells. After analysis of 50 images VCD was calculated and viability was determined by calculation of the percentage of viable cell number in relation to the total cell number.
Total concentration of the transiently expressed antibody was determined by a turbidimetric test. One mL cell suspension was transferred into an Eppendorf cup and centrifuged for 10 min. at 10,000 rpm (9,300 g).

The test system of series [2] is HDAC. Conditions: cited from earlier work.
The test system of series [3] is HEK293F cells. Kind of series: Transient gene expression in HEK293F cells: IgG concentration / titer (turbidimetric test). To be noted: none=100, N=1, FIG. 7. The class given is cell-based, human. The protocol:
as §1, §2, §3, §4, §5
Total concentration of the transiently expressed antibody was determined by a turbidimetric test. One mL cell suspension was transferred into an Eppendorf cup and centrifuged for 10 min. at 10,000 rpm (9,300 g). The supernatant was transferred into a new cup and subjected to Cobas Integra 400 plus (Roche) analysis. With comparison to internal standard the absolute concentration was calculated.

Series [4] concerns HEK293F cells. The series is classed as cell-based. Conditions: in words. The protocol: as §6
The subject of series [5] is HDAC. Kind of series: in situ HDAC activity fluorimetric assay in HEK293F cells. Conditions: for HDAC inhibition: yes/no, summary table. The class given is cell-based, human. The protocol: HDAC activity was determined by the in situ HDAC activity fluorimetric assay kit (Biovision) according to the manufacturer's instructions. HEK293F cells were suspended in F17 medium (Life Technologies) to a cell density of 5*10^5 cells/mL. One hundred micro liter culture was pipetted per well into a black ELISA plate. The plate was centrifuged at 1000 g for 5 min. The supernatant was discarded and the cells were resuspended in a reaction mix containing F17 medium, 1% HDAC substrate and the molecule tested towards HDAC inhibitory activity. 10 μM Trichostatin A was used as a positive control and the basal HDAC activity was determined by re-suspending the cells in F17 medium with 1% HDAC substrate. Furthermore, cells were resuspended in F17 medium without HDAC substrate as a background control. The HDAC activity assay was performed in triplicates for every sample as well as every control. The 96-well plate was incubated at 36.5° C., 80% humidity and 7% CO2 for one hour. During this time, the active HDACs deacetylate the HDAC substrate what releases the quenched fluorescent signal of the substrate. After incubation the fluorescent signal was analyzed by the infinite fluorescence plate reader (TECAN). The fluorescence signal of the samples and controls was normalized by subtracting the fluorescence signal of the background control. It is assumed that the fluorescent signal arising from deacetylation of the substrate directly correlates with HDAC activity.

Where [6] appears, read: description from the literature.
Setting [7] is: 50 ng/mL, none=100, N=2, FIG. 5.

In the case of `Cc1ccc(S(=O)(=O)/C=C/C#N)cc1` [BAY 11-7082, BAY11-7082], the “specific productivity after 96 hours” value in series [1] (1 μM alone, N=3) is reported as 2.21 pg/cell/day; in series [1] (5 μM alone, N=3), 2.30 pg/cell/day; in series [1] (15 μM alone, N=3) it was 2.27 pg/cell/day. Besides, in series [1] (NFκB (IκB kinase) inhibition in transfected HEK293F cells), the “duration of the effect” value is recorded as “about 4 days”.

With `O=C(/C=C/c1cccc(S(=O)(=O)Nc2ccccc2)c1)NO` [Belinostat], the activity at 1 µM in series [1] (Homo sapiens, HEK293F, employed concentration 1 μM, none=100, N=2, FIG. 2B, read-out: relative cell specific productivity) was found to be 115%.

`CCCCOc1ccc(CC(=O)NO)cc1` [Bufexamac]: the activity at 10 µM in series [1] (Homo sapiens, HEK293F, employed concentration 10 μM, none=100, N=1, FIG. 2B, read-out: relative cell specific productivity) was 94%. Besides, the “HDAC class / isoform selectivity” value in series [2] (setting [6]) was “selective class IIb HDAC inhibitor”.

For `Nc1ccccc1NC(=O)c1ccc(CNC(=O)OCc2cccnc2)cc1` [Entinostat], the activity at 0.3 µM in series [1] (Homo sapiens, HEK293F, employed concentration 300 nM, none=100, N=2, FIG. 2B, read-out: relative cell specific productivity) was 108%. Also, the “HDAC class / isoform selectivity” value in series [2] (setting [6]) is given as “class I HDAC inhibitor with additional inhibitory activity to class IIa member HDAC 9”.

For `Nc1ccccc1NC(=O)c1ccc(CNc2nccc(-c3cccnc3)n2)cc1` [Mocetinostat], in series [1] (Homo sapiens, HEK293F, employed concentration 2 μM, none=100, N=2, FIG. 2B, read-out: relative cell specific productivity), the activity at 2 µM stood at 135%. For the same molecule, in series [2] (setting [6]), the “HDAC class / isoform selectivity” value was “lowest IC50 values for HDAC 1 and 2 and modest inhibitory activity against HDAC 3 and HDAC 11”.

`COc1ccc(Cn2ccc3ccc(C(=O)NO)cc32)cc1` [PCI34051]: in series [3] (5 μM), the “relative IgG concentration” value was 99%. Besides, in series [2] (setting [6]), the “HDAC class / isoform selectivity” value is listed as “HDAC 8-specific inhibitor”.

With `CCCCCCCCCCCCCC(=O)O[C@@H]1[C@@H](C)[C@@]2(O)[C@@H](C=C(CO)C[C@]3(O)C(=O)C(C)=C[C@@H]23)[C@@H]2C(C)(C)[C@]12OC(C)=O` [PMA, phorbol myristate acetate], the activity at 0.1 µM in series [1] (Homo sapiens, HEK293F, 100 nM, none=100, N=2, FIG. 5, read-out: relative cell specific productivity) was 149%.

With `Nc1cc(F)ccc1NC(=O)/C=C/c1cnn(C/C=C/c2ccccc2)c1` [RGFP966], in series [3] (1 μM), the “relative IgG concentration” value is listed as 103%. For the same molecule, in series [2] (setting [6]), the “HDAC class / isoform selectivity” value was “specific HDAC 3 inhibitor”.

As to `C/C=C1\NC(=O)[C@H]2CSSCC/C=C/[C@H](CC(=O)N[C@H](C(C)C)C(=O)N2)OC(=O)[C@H](C(C)C)NC1=O` [Romidepsin], the activity at 0.015 µM is 203% in series [1] (Homo sapiens, HEK293F, none=100, N=3, FIG. 8A, read-out: relative cell specific productivity) and 203% in series [1] (Homo sapiens, HEK293F, none=100, N=3, FIG. 9A, read-out: relative cell specific productivity). In series [4], the toxicity result is “mild toxicity”.

Consider `O=C(NCC1(c2nc(-c3ccccc3)cs2)CCOCC1)c1cccc(-c2noc(C(F)(F)F)n2)c1` [TMP269], for which, in series [1] (employed concentration 15 μM, none=100, N=2, FIG. 2B), the “relative cell specific productivity” value is 99%. The “HDAC class / isoform selectivity” value in series [2] (setting [6]) was “preference to class IIa HDACs 4, 5, 7, and 9”.

Take `CC(/C=C/C(=O)NO)=C\[C@@H](C)C(=O)c1ccc(N(C)C)cc1` [Trichostatin A]: in series [5], the HDACi is given as 99%.

`CCC(=O)CCCCC[C@@H]1NC(=O)[C@H]2CCCCN2C(=O)[C@H]([C@@H](C)CC)NC(=O)[C@H](Cc2cn(OC)c3ccccc23)NC1=O` [apicidin, Apicidin]: in series [3] (200 nM), the “relative IgG concentration” value is on record as 182%.

Consider `C=C(C)[C@@H]1CC[C@]2(C(=O)O)CC[C@]3(C)[C@H](CC[C@@H]4[C@@]5(C)CC[C@H](O)C(C)(C)[C@@H]5CC[C@]43C)[C@@H]12` [betulinic acid], for which the activity at 10 µM in series [1] (Homo sapiens, HEK293F, 10 μM, none=100, N=2, FIG. 5, read-out: relative cell specific productivity) is 121%.

As to `Cc1ccc(NC(=O)CCCCCC(=O)Nc2ccccc2N)cc1` [pimelic diphenylamide 106], the activity at 20 µM in series [1] (Homo sapiens, HEK293F, 20 μM, transfected control=100, N=3, FIG. 3B, read-out: relative cell specific productivity) was 171%; in series [1] (Homo sapiens, HEK293F, employed concentration 20 μM, none=100, N=2, FIG. 2B, read-out: relative cell specific productivity), 160%. The “Mean cell specific productivity” value in series [1] (conc. 20 μM) is listed as 5.4 (20 μM) pg/cell/24 h. The molecule further showed an HDACi in series [5] (20 μM, N=3, FIG. 3A) of 22.6%. For the same molecule, the HDAC inhibition result in series [5] was “yes”. For the same molecule, in series [2] (HDAC classes, summary table), the HDAC selectivity entry is “Class I”. Moreover, the “HDAC class / isoform selectivity” value in series [2] (setting [6]) was “class I HDAC inhibitor with highest affinity towards HDAC 1 and 3, high affinity towards HDAC 2 and modest affinity towards HDAC 8”.

As to `CCC(C)C(CC)C(N)=O` (centres unmarked) [valnoctamide], in series [1] (2 mM, in words), the TGE enhancement result was “Weak TGE enhancement”. For the same molecule, the activity at 3000 µM in series [1] (Homo sapiens, HEK293F, 3 mM, transfected control=100, N=3, FIG. 3B, read-out: relative cell specific productivity) stood at 122%; in series [1] (Homo sapiens, HEK293F, employed concentration 3 mM, none=100, N=2, FIG. 4, read-out: relative cell specific productivity), 125%. Moreover, in series [1] (Homo sapiens, HEK293F, employed concentration 2 mM, none=100, N=2, FIG. 4, read-out: relative cell specific productivity), the activity at 2000 µM came out at 133%. In addition, the “Mean cell specific productivity” value in series [1] (conc. 3 mM) is given as 1.71 (3 mM) pg/cell/24 h. For the same molecule, in series [1] (summary table, in words), the “Effect on titer/SPR” value was “weak”. In series [5] (3 mM, N=3, FIG. 3A), this molecule returned an HDACi of 11.1%. In addition, the HDAC inhibition result in series [5] is reported as “no”.

As for `CCC(C)C(CC)C(=O)O` (centres unmarked) [valnoctic acid], in series [2] (setting [6]), the HDAC inhibitory activity result is “weak HDAC inhibitory activity”.

Consider “EGF: epidermal growth factor, NFκB activator”, for which, in series [1] (20 ng/mL, single treatment, N=3), the “specific productivity after 96 hours” value turned out to be 2.56 pg/cell/day. In addition, in series [1] (setting [7]), the “relative cell specific productivity” value was found to be 173%. In addition, the “TGE enhancement after BAY11-7082 treatment compared to the corresponding single treatment” value in series [1] was “significantly reduced”.

As to TNFalpha, the “relative cell specific productivity” value in series [1] (setting [7]) amounted to 139%; in series [1] (50 ng/mL, single treatment, none=100, N=3), 157%. In series [1] (50 ng/mL, single treatment, N=3), the “specific productivity after 96 hours” value stood at 2.66 pg/cell/day. In addition, the “TGE enhancement after BAY11-7082 treatment compared to the corresponding single treatment” value in series [1] was “significantly reduced”.
